Activity and survival data for five compounds are collected here from ChEMBL document CHEMBL1154443, “In vivo studies of 5-arylethenylbenzofuroxans in acute murine models of Chagas' disease” (Eur J Med Chem, 2008).

Active and inactive are the calls of the source. No cut-off for these calls is given here.

Series [1] has as its system Trypanosoma cruzi. As to the kind of experiment: Antitrypanosomal activity against Trypanosoma cruzi Colombiana infected Swiss mouse assessed as reduction in circulating trypomastigotes antibody level at 120 mg/kg/day, po after 44 days postinfection. The class given is functional, organism-based.
The test system of series [2] is Trypanosoma cruzi. Kind of series: Antitrypanosomal activity against Trypanosoma cruzi Tulahuen 2 infected Swiss mouse assessed as reduction in circulating trypomastigotes antibody level at 200 mg/kg/day, po after 60 days postinfection. The class given is functional, organism-based.
The test system of series [3] is Trypanosoma cruzi. Kind of series: Antitrypanosomal activity against Trypanosoma cruzi Tulahuen 2 infected Swiss mouse assessed as reduction in circulating trypomastigotes antibody level at 200 mg/kg/day, po after 90 days postinfection. The series is classed as functional, organism-based.
The test system of series [4] is Trypanosoma cruzi. As to the kind of experiment: Antitrypanosomal activity against Trypanosoma cruzi Tulahuen 2 infected Swiss mouse assessed as prevention of heart inflammatory infiltrates at 200 mg/kg/day, po. The class given is functional, organism-based.
In series [5] the test system is Trypanosoma cruzi. Kind of series: Antitrypanosomal activity against Trypanosoma cruzi Tulahuen 2 infected Swiss mouse assessed as prevention of muscle inflammatory infiltrates at 200 mg/kg/day, po. The class given is functional, organism-based. The settings on record: Muscle tissue.
The subject of series [6] is Trypanosoma cruzi. As to the kind of experiment: Antitrypanosomal activity against Trypanosoma cruzi Tulahuen 2 infected Swiss mouse assessed as prevention of liver congestion at 200 mg/kg/day, po. The series is classed as functional, organism-based.
Series [7] deals with Trypanosoma cruzi. Kind of series: Antitrypanosomal activity against Trypanosoma cruzi Colombiana infected Swiss mouse assessed as prevention of heart inflammatory infiltrates at 120 mg/kg/day, po. The class given is functional, organism-based.
Series [8] deals with Trypanosoma cruzi. Kind of series: Antitrypanosomal activity against Trypanosoma cruzi Colombiana infected Swiss mouse assessed as prevention of skeletal muscle inflammatory infiltrates at 120 mg/kg/day, po. The settings on record: Muscle tissue. The class given is functional, organism-based.
The test system of series [9] is Trypanosoma cruzi. Kind of series: Antitrypanosomal activity against Trypanosoma cruzi Colombiana infected Swiss mouse assessed as prevention of liver congestion at 120 mg/kg/day, po. The series is classed as functional, organism-based.
Series [10] can be described thus: Toxicity against Trypanosoma cruzi Colombiana infected Swiss mouse assessed as mouse survival at 120 mg/kg/day, po after 25 days. The settings on record: in vivo, read-out: Activity. Details: route oral. The series is classed as organism-based.
Series [11] relates to Mus musculus. As to the kind of experiment: Toxicity against Trypanosoma cruzi infected CD1 mouse assessed as effect on heart histology at 450 mg/kg, po. The series is classed as organism-based. Details: dose 450 mg/kg, route oral. Particulars: in vivo.
Series [12] concerns Trypanosoma cruzi. As to the kind of experiment: Antitrypanosomal activity against Trypanosoma cruzi Argentinian isolate infected Swiss mouse assessed as prevention of heart inflammatory infiltrates at 60 mg/kg/day, po. The class given is functional, organism-based.
The test system of series [13] is Trypanosoma cruzi. As to the kind of experiment: Antitrypanosomal activity against Trypanosoma cruzi Argentinian isolate infected Swiss mouse assessed as inhibition of heart amastigote nests at 60 mg/kg/day, po. The series is classed as functional, organism-based.
Series [14] deals with Trypanosoma cruzi. Kind of series: Antitrypanosomal activity against Trypanosoma cruzi Argentinian isolate infected Swiss mouse assessed as prevention of skeletal muscle inflammatory infiltrates at 60 mg/kg/day, po. The settings on record: Muscle tissue. The series is classed as functional, organism-based.
The test system of series [15] is Trypanosoma cruzi. As to the kind of experiment: Antitrypanosomal activity against Trypanosoma cruzi Argentinian isolate infected Swiss mouse assessed as inhibition of skeletal muscle amastigote nests at 60 mg/kg/day, po. The settings on record: Muscle tissue. The class given is functional, organism-based.
Series [16] deals with Trypanosoma cruzi. As to the kind of experiment: Antitrypanosomal activity against Trypanosoma cruzi Argentinian isolate infected Swiss mouse assessed as prevention of liver congestion at 60 mg/kg/day, po. The class given is functional, organism-based.
Series [17] concerns Mus musculus. As to the kind of experiment: Toxicity against Trypanosoma cruzi infected CD1 mouse assessed as effect on liver histology at 300 mg/kg, ip. More on the design: dose 300 mg/kg, route intraperitoneal. The settings on record: in vivo. The series is classed as organism-based.
In series [18] the test system is Mus musculus. As to the kind of experiment: Toxicity against Trypanosoma cruzi infected CD1 mouse assessed as effect on liver histology at 450 mg/kg, po. The class given is organism-based. Details: dose 450 mg/kg, route oral. Particulars: in vivo.
In series [19] the test system is Mus musculus. As to the kind of experiment: Toxicity against Trypanosoma cruzi infected CD1 mouse assessed as effect on heart histology at 300 mg/kg, ip. The series is classed as organism-based. Details: dose 300 mg/kg, route intraperitoneal. Particulars: in vivo.
Series [20] relates to Mus musculus. Kind of series: Toxicity against Trypanosoma cruzi infected CD1 mouse assessed as effect on kidney histology at 450 mg/kg, po. Particulars: in vivo. The series is classed as organism-based. Details: dose 450 mg/kg, route oral.
In series [21] the test system is Mus musculus. As to the kind of experiment: Toxicity against Trypanosoma cruzi infected CD1 mouse assessed as effect on kidney histology at 300 mg/kg, ip. The class given is organism-based. More on the design: dose 300 mg/kg, route intraperitoneal. Particulars: in vivo.
The subject of series [22] is Trypanosoma cruzi. Kind of series: Antitrypanosomal activity against Trypanosoma cruzi Tulahuen 2 infected Swiss mouse assessed as suppression of parasitemia at 60 mg/kg/day, po. The class given is functional, organism-based.
The test system of series [23] is Trypanosoma cruzi. Kind of series: Antitrypanosomal activity against Trypanosoma cruzi Tulahuen 2 infected Swiss mouse assessed as suppression of parasitemia at 120 mg/kg/day, po. The class given is functional, organism-based.
The subject of series [24] is Trypanosoma cruzi. Kind of series: Antitrypanosomal activity against Trypanosoma cruzi Tulahuen 2 infected Swiss mouse assessed as prevention of heart inflammatory infiltrates at 120 mg/kg/day, po. The series is classed as functional, organism-based.
The test system of series [25] is Trypanosoma cruzi. Kind of series: Antitrypanosomal activity against Trypanosoma cruzi Tulahuen 2 infected Swiss mouse assessed as prevention of muscle inflammatory infiltrates at 120 mg/kg/day, po. The class given is functional, organism-based. The settings on record: Muscle tissue.
For series [26], the system named is Trypanosoma cruzi. As to the kind of experiment: Antitrypanosomal activity against Trypanosoma cruzi Tulahuen 2 infected Swiss mouse assessed as prevention of liver congestion at 120 mg/kg/day, po. The series is classed as functional, organism-based.
The test system of series [27] is Trypanosoma cruzi. Kind of series: Antitrypanosomal activity against Trypanosoma cruzi Colombiana infected Swiss mouse assessed as reduction in circulating trypomastigotes antibody level at 120 mg/kg/day, po after 90 days postinfection. The class given is functional, organism-based.
Series [28] in a line: Toxicity against Trypanosoma cruzi Tulahuen 2 infected Swiss mouse assessed as mouse survival at 120 mg/kg/day, po after 25 days. The series is classed as organism-based. Details: route oral. Particulars: in vivo, read-out: Activity.
Series [29] concerns Trypanosoma cruzi. As to the kind of experiment: Antitrypanosomal activity against Trypanosoma cruzi Argentinian isolate infected Swiss mouse assessed as suppression of parasitemia at 60 mg/kg/day, po. The class given is functional, organism-based.
Series [30] relates to Trypanosoma cruzi. As to the kind of experiment: Antitrypanosomal activity against Trypanosoma cruzi Uruguayan isolate infected CD1 mouse assessed as suppression of parasitemia at 60 mg/kg/day, po after 17 day postinfection. The class given is functional, organism-based.
For series [31], the system named is Trypanosoma cruzi. As to the kind of experiment: Antitrypanosomal activity against Trypanosoma cruzi Tulahuen 2 infected Swiss mouse assessed as reduction in circulating trypomastigotes antibody level at 120 mg/kg/day, po after 60 days postinfection. The series is classed as functional, organism-based.
For series [32], the system named is Trypanosoma cruzi. Kind of series: Antitrypanosomal activity against Trypanosoma cruzi Tulahuen 2 infected Swiss mouse assessed as reduction in circulating trypomastigotes antibody level at 120 mg/kg/day, po after 90 days postinfection. The class given is functional, organism-based.

On to `O=C(Cn1ccnc1[N+](=O)[O-])NCc1ccccc1` [BENZNIDAZOLE], for which the result in the series with Trypanosoma cruzi [1], with Trypanosoma cruzi [2], with Trypanosoma cruzi [3], in the series with Trypanosoma cruzi [4], in the series on Trypanosoma cruzi [5] and in the series with Trypanosoma cruzi [6] was Active. The outcome with Trypanosoma cruzi [7], in the series with Trypanosoma cruzi [8] and with Trypanosoma cruzi [9] was Active. Further, in [10], the survival at 600 h is 100%.

As to `CC1CS(=O)(=O)CCN1/N=C/c1ccc([N+](=O)[O-])o1` (configuration not stated) [NIFURTIMOX], the Activity result in the series with Mus musculus [11] is “Non-toxic”; in the series on Mus musculus [17], “Toxic”; in the series on Mus musculus [18] it was “Toxic”; in the series on Mus musculus [19], “Non-toxic”; with Mus musculus [20] it was “Toxic”; in the series with Mus musculus [21] it was “Non-toxic”. Also, the outcome in the series with Trypanosoma cruzi [12], in the series on Trypanosoma cruzi [13], in the series on Trypanosoma cruzi [14], in the series on Trypanosoma cruzi [15] and in the series on Trypanosoma cruzi [16] was Active.

On to `[O-][n+]1onc2ccc(/C=C/c3ccccc3)cc21`, for which the outcome in the series on Trypanosoma cruzi [1] was inactive. The Activity entry in the series on Mus musculus [11], in the series on Mus musculus [17], in the series on Mus musculus [18], in the series on Mus musculus [19], with Mus musculus [20] and in the series with Mus musculus [21] was “Non-toxic” in each case. The result in the series on Trypanosoma cruzi [22], with Trypanosoma cruzi [23], in the series on Trypanosoma cruzi [24], with Trypanosoma cruzi [25], with Trypanosoma cruzi [26] and in the series on Trypanosoma cruzi [27] was Active. Also, the outcome with Trypanosoma cruzi [7], in the series on Trypanosoma cruzi [8], in the series on Trypanosoma cruzi [9], in the series on Trypanosoma cruzi [29], in the series on Trypanosoma cruzi [30] and in the series on Trypanosoma cruzi [12] was Active. The result with Trypanosoma cruzi [13], in the series with Trypanosoma cruzi [14], in the series on Trypanosoma cruzi [15] and in the series with Trypanosoma cruzi [16] was Active. For the same compound, the survival at 600 h in series [10] and in series [28] was 100% each time.

`[O-][n+]1onc2ccc(/C=C\c3ccc4c(c3)OCO4)cc21`: the outcome in the series with Trypanosoma cruzi [1] was inactive. Also, the outcome in the series with Trypanosoma cruzi [24], in the series with Trypanosoma cruzi [25], in the series on Trypanosoma cruzi [26], in the series on Trypanosoma cruzi [27], with Trypanosoma cruzi [7] and in the series with Trypanosoma cruzi [8] was Active. For the same compound, the outcome in the series with Trypanosoma cruzi [9] was Active. Besides, the survival at 600 h in [10] and in series [28] was 100% in each case.

As to `[O-][n+]1onc2ccc(/C=C/c3ccc4c(c3)OCO4)cc21`, the result in the series on Trypanosoma cruzi [1] was inactive. Further, the outcome in the series with Trypanosoma cruzi [31], with Trypanosoma cruzi [32], in the series on Trypanosoma cruzi [24], in the series with Trypanosoma cruzi [25], in the series on Trypanosoma cruzi [26] and in the series with Trypanosoma cruzi [7] was Active. For the same compound, the outcome in the series on Trypanosoma cruzi [8] and in the series with Trypanosoma cruzi [9] was Active. Moreover, the survival at 600 h in series [10] and in series [28] was 100% in each case.
